Experimental data taken from PMC10813298, “Evidence of Guanidines Potential against Leishmania (Viannia) braziliensis: Exploring In Vitro Effectiveness, Toxicities and of Innate Immunity Response Effects” (Biomolecules, 2023).

Key:
IL-12 = assay: Cytokine production in supernatant of infected macrophages (ELISA), IL-12; format: cell-based, murine; details: supernatant of RAW 264.7 macrophages infected with L. (V.) braziliensis
Text: (§1) To assess the production of cytokines TNF-α and IL-12 (associated with Th1 response), as well as IL-10 and IL-6 (associated with Th2 response), in the supernatants of the macrophage infection assay, the sandwich enzyme-linked immunosorbent assay (ELISA) method was employed, following the manufacturer’s instructions (eBioscience^TM, San Diego, CA, USA). Initially, capture antibodies specific to TNF-α, IL-6, IL-10, and IL-12 were sensitized in ELISA plates (NUNC-ImmunoTM, Sigma-Aldrich, St. Louis, MO, USA). The plates were incubated at 4 °C for 18 h. After the incubation period, all wells were washed with a solution containing 0.05% PBS and Tween 20 (Sigma-Aldrich, St. Louis, MO, USA). A blocking solution containing 10% FBS in PBS was added to the wells and incubated for 1 h. Subsequently, the wells were washed again. The supernatant obtained from the macrophage infection assay was added to the respective wells. Known concentrations of recombinant cytokines (TNF-α, IL-10, IL-6, and IL-12) were also added to the plate in parallel, covering a range from high to low concentrations. The plates were maintained at 4 °C for another 18 h. […] The absorbance was measured in a plate reader at a wavelength of 450 nm. The concentration of cytokines (TNF-α, IL-10, IL-6, and IL-12) in the supernatants was determined by interpolation from the standard curve.

IL-10 = assay: Cytokine production in supernatant of infected macrophages (ELISA), IL-10; format: cell-based, murine; details: supernatant of RAW 264.7 macrophages infected with L. (V.) braziliensis
Text: as §1

[1] = Cell toxicity, MTT-based EZ4U assay, CaCo-2; details: human, CaCo-2 cells (colon carcinoma); for viability at 72 h, 2.34 µmol/L: CACO2, 2.34 µmol/L; for viability at 72 h, 4.6875 µmol/L: CACO2, 4.6875 µmol/L; for viability at 72 h, 9.375 µmol/L: CACO2, 9.375 µmol/L; for viability at 72 h, 18.75 µmol/L: CACO2, 18.75 µmol/L; for viability at 72 h, 37.5 µmol/L: CACO2, 37.5 µmol/L; for viability at 72 h, 75 µmol/L: CACO2, 75 µmol/L; for viability at 72 h, 150 µmol/L: CACO2, 150 µmol/L; for viability at 72 h, 300 µmol/L: CACO2, 300 µmol/L; for viability at 72 h, 600 µmol/L: CACO2, 600 µmol/L
Protocol: (§2) In this study, we utilized the RAW 264.7 macrophages line (obtained from ATCC: code TIB-71™),human embryonic kidney cell line HEK-293 (obtained from ATCC: code CRL-1573™)and two human cancer cell cultures: the colon carcinoma cell line CaCo-2 and the adenocarcinomic human alveolar basal epithelial cell A549 (also obtained from ATCC: codesHTB-37™ and CCL-185™).These cell lines were cultured in Dulbecco’s modified Eagle medium (DMEM) from Gibco by Life Technologies (LifeTech Austria, Vienna, Austria). The growth medium was supplemented with 5% fetal bovine serum (FBS) from Gibco by Life Technologies and 1% penicillin-streptomycin obtained from Sigma-Aldrich (Vienna, Austria). The cells were maintained at 37 °C with 5% CO2 in a humidified incubator, and regular checks for mycoplasma contamination were carried out.
(§3) For experimental purposes, the cells were seeded into 96-well plates at a density of 2 × 10^4 cells/mL, with each well containing 100 µL of the cell suspension. The cells were allowed to adhere for 24 h. Subsequently, they were exposed to 100 µL of the test compounds, which were diluted in DMEM, with concentrations ranging from 2 to 600 µmol/L. The stock solutions of these compounds were prepared in water with 10% (v/v) dimethyl sulfoxide (DMSO) and stored at 4 °C.
(§4) To assess cell viability after 72 h of exposure to the compounds, we employed a 3-(4,5-dimethylthiazol-2-yl)-2,5-diphenyltetrazolium bromide (MTT)-based vitality assay kit (EZ4U, Biomedica, Vienna, Austria). Briefly, we added 20 µL of the EZ4U assay solution to each well and incubated the plates in the dark for 2 h. Subsequently, we measured the absorbance using a microplate reader at 450 nm, with 620 nm as a reference to reduce unspecific background values. For reliability, all experiments were conducted three times with triplicate samples.

[2] = Cell toxicity, MTT-based EZ4U assay, A549; set-up: species or system human; details: human, A549 cells (alveolar basal epithelial adenocarcinoma), 72 h; for viability at 72 h, 2.34 µmol/L: A549, 2.34 µmol/L; for viability at 72 h, 4.6875 µmol/L: A549, 4.6875 µmol/L; for viability at 72 h, 9.375 µmol/L: A549, 9.375 µmol/L; for viability at 72 h, 18.75 µmol/L: A549, 18.75 µmol/L; for viability at 72 h, 37.5 µmol/L: A549, 37.5 µmol/L; for viability at 72 h, 75 µmol/L: A549, 75 µmol/L; for viability at 72 h, 150 µmol/L: A549, 150 µmol/L; for viability at 72 h, 300 µmol/L: A549, 300 µmol/L; for viability at 72 h, 600 µmol/L: A549, 600 µmol/L
Protocol: as §2
as §3, with “Subsequently, they were exposed to 100 µL of the test compounds, which were diluted in DMEM, with concentrations ranging from 2 to 600 µmol/L.” left out
as §4

A549 = assay: Cell toxicity, MTT-based EZ4U assay, A549; set-up: species or system human; details: A549, 1.56–500 µmol/L
Protocol: as §2
as §3, with “Subsequently, they were exposed to 100 µL of the test compounds, which were diluted in DMEM, with concentrations ranging from 2 to 600 µmol/L.” left out
as §4

[3] = system: L. (L.) infantum promastigotes; set-up: method as in PMID 36977142; details: read-out: IC50 antipromastigote activity; cited from earlier work
[4] = system: Leishmania (Leishmania) amazonensis; set-up: method as in PMID 36551331; details: BALB/c-L. (L.) amazonensis, 0.13 mg/kg/day; cited from earlier work
LmCPB2.8ΔCTE = system: LmCPB2.8ΔCTE; set-up: method as in PMID 36551331; details: previous findings; cited from earlier work

Row | Structure (SMILES) | viability at 72 h, 2.34 µmol/L [1] [%] | viability at 72 h, 4.6875 µmol/L [1] [%] | viability at 72 h, 9.375 µmol/L [1] [%] | viability at 72 h, 18.75 µmol/L [1] [%] | viability at 72 h, 37.5 µmol/L [1] [%] | viability at 72 h, 75 µmol/L [1] [%] | viability at 72 h, 150 µmol/L [1] [%] | viability at 72 h, 300 µmol/L [1] [%] | viability at 72 h, 600 µmol/L [1] [%] | viability at 72 h, 2.34 µmol/L [2] [%] | viability at 72 h, 4.6875 µmol/L [2] [%] | viability at 72 h, 9.375 µmol/L [2] [%] | viability at 72 h, 18.75 µmol/L [2] [%] | viability at 72 h, 37.5 µmol/L [2] [%] | viability at 72 h, 75 µmol/L [2] [%] | viability at 72 h, 150 µmol/L [2] [%] | viability at 72 h, 300 µmol/L [2] [%] | viability at 72 h, 600 µmol/L [2] [%] | toxic effects on cell viability (A549) | IC50 [3] [µM] | other results
1 | O=C(/N=C(/NCc1ccccc1)Nc1ccc([N+](=O)[O-])cc1)c1ccccc1 [LQOF-G1, (Z)-N-benzoyl-N-benzyl-N-(4-nitrophenyl)guanidine] | 106 ± 8 | 109 ± 5 | 109 ± 7 | 109 ± 10 | 97 ± 13 | 99 ± 7 | 107 ± 3 | 103 ± 10 | 119 ± 5 | 114 ± 7 | 97 ± 10.7 | 103 ± 8.8 | 103 ± 5.7 | 101 ± 8.3 | 92 ± 9.3 | 100 ± 6.5 | 110 ± 7.2 | 90 ± 8.3 | No toxic effects |  | IL-12 level (IL-12): increased; IL-10 level (IL-10): decreased
2 | O=C(/N=C(/NCc1ccccc1)Nc1ccc(Br)cc1)c1ccccc1 [LQOF-G2, (Z)-N-benzoyl-N-benzyl-N-(4-bromophenyl)guanidine] | 106 ± 3.6 | 109 ± 13.6 | 109 ± 14.7 | 103 ± 5.7 | 97 ± 4.9 | 99 ± 6.4 | 107 ± 5.3 | 103 ± 6.6 | 119 ± 8.8 | 106 ± 6.3 | 109 ± 5.5 | 102 ± 10.5 | 89 ± 5.7 | 99 ± 5.2 | 96 ± 7.7 | 109 ± 4.3 | 111 ± 9.3 | 110 ± 7.9 | No toxic effects | 12.7 | IL-10 level (IL-10): decreased; reduction in the parasite load [4]: 46%
3 | CC(C)(C)c1ccc(N/C(=N\C(=O)c2ccccc2)NCc2ccccc2)cc1 [LQOF-G6, (Z)-N-benzoyl-N-benzyl-N-(4-tert-butylphenyl)guanidine] |  |  |  |  |  |  |  |  |  |  |  |  |  |  |  |  |  |  |  | 24.4 | inhibition of the enzyme LmCPB2.8ΔCTE (LmCPB2.8ΔCTE): 73%
4 | O=C(/N=C(/NCc1ccccc1)Nc1ccc(I)cc1)c1ccccc1 [LQOF-G7, (Z)-N-benzoyl-N-benzyl-N-(4-iodophenyl)guanidine] |  |  |  |  |  |  |  |  |  |  |  |  |  |  |  |  |  |  |  | 23.6 | 
5 | O=C(/N=C(/NCc1ccc(Cl)cc1Cl)Nc1ccc(Br)cc1)c1ccccc1 [LQOF-G32, (Z)-N-benzoyl-N-(2,4-di-chlorobenzyl)-N-(4-bromophenyl)guanidine] | 138 ± 8.4 | 123 ± 11.4 | 117 ± 7.3 | 116 ± 9.7 | 79 ± 6.4 | 53 ± 14.8 | 45 ± 10.4 | 45 ± 15.9 | 66 ± 12.3 | 109 ± 9.7 | 157 ± 10.6 | 165 ± 8.1 | 121 ± 3.6 | 118 ± 9.9 | 115 ± 17.5 | 111 ± 15.5 | 106 ± 13.8 | 95 ± 10.4 | No toxic effects |  | 
